Results from PMC3958260 (2014).

How the values were obtained:
[1] = system: aptamer # 3_7 (DNA, aptamer) ATACCAGCTTATTCAATTGGTGGTAGGATGGGCTCGATCGAGGTCTTCAGTCGGCTCGGTTTAGTTTATGTTCTCCTGTAGATAGTAAGTGCAATCT; experiment: bead fluorescence release assay; conditions: 100 mM Na+, 5 mM K+, 2 mM Mg2+, 1 mM Ca2+; 20 mM Tris-HCl pH 7.6, 21 °C; 1 mM compound; release from capture oligo iODN2Sp; single concentration
[2] = system: aptamer # 11_76 (DNA, aptamer) ATACCAGCTTATTCAATTATGCGGGGATGAGGCTTGATCTGTGGCTCTGATCCATGATCAGTCGTCTTACGTGCGGTCCAGATAGTAAGTGCAATCT; experiment: bead fluorescence release assay; conditions: 100 mM Na+, 5 mM K+, 2 mM Mg2+, 1 mM Ca2+; 20 mM Tris-HCl pH 7.6, 21 °C; 1 mM compound; release from capture oligo iODN2Sp; single concentration
[3] = system: aptamer # 13_82 (DNA, aptamer) ATACCAGCTTATTCAATTCAGGGCGGTATGAGGCTCGATCAAGGTCGGAGCGAGAATTTTTTCGCGGAGTCGGCTGGATCAGATAGTAAGTGCAATCT; experiment: bead fluorescence release assay; conditions: 100 mM Na+, 5 mM K+, 2 mM Mg2+, 1 mM Ca2+; 20 mM Tris-HCl pH 7.6, 21 °C; 1 mM compound; release from capture oligo iODN2Sp; single concentration
[4] = system: aptamer # 3_19 (DNA, aptamer) ATACCAGCTTATTCAATTAGCCCGGTATTGAGGTCGATCTCTTATCCTATGGCTTGTCCCCCATGGCTCGGTTATATCCAGATAGTAAGTGCAATCT; experiment: bead fluorescence release assay; conditions: 100 mM Na+, 5 mM K+, 2 mM Mg2+, 1 mM Ca2+, 20 mM Tris-HCl pH 7.6, 21 °C, 1 mM compound, release from capture oligo iODN2Sp; for amount of eluted aptamer DNA: single concentration; for binding: below 1 pmol threshold
[5] = system: aptamer # 3_7(1-79) (DNA, aptamer) ATACCAGCTTATTCAATTGGTGGTAGGATGGGCTCGATCGAGGTCTTCAGTCGGCTCGGTTTAGTTTATGTTCTCCTGT; experiment: bead fluorescence release assay; conditions: 100 mM Na+, 5 mM K+, 2 mM Mg2+, 1 mM Ca2+; 20 mM Tris-HCl pH 7.6, 21 °C; 1 mM compound; release from capture oligo iODN2Sp; single concentration
[6] = system: aptamer # 13_82(19-80) (DNA, aptamer) CAGGGCGGTATGAGGCTCGATCAAGGTCGGAGCGAGAATTTTTTCGCGGAGTCGGCTGGATC; experiment: MTP fluorescence release assay; conditions: 100 mM Na+, 5 mM K+, 2 mM Mg2+, 1 mM Ca2+; 20 mM Tris-HCl pH 7.6, 21 °C; release from capture oligo iODN2Sp; elution not above background
[7] = system: aptamer # 13_82(19-80) (DNA, aptamer) CAGGGCGGTATGAGGCTCGATCAAGGTCGGAGCGAGAATTTTTTCGCGGAGTCGGCTGGATC; experiment: bead fluorescence release assay; conditions: 100 mM Na+, 5 mM K+, 2 mM Mg2+, 1 mM Ca2+; 20 mM Tris-HCl pH 7.6, 21 °C; 1 mM compound; release from capture oligo iODN2Sp; single concentration
[8] = system: # 3_19(1-79) (DNA, aptamer) ATACCAGCTTATTCAATTAGCCCGGTATTGAGGTCGATCTCTTATCCTATGGCTTGTCCCCCATGGCTCGGTTATATCC; experiment: MTP fluorescence release assay; conditions: 100 mM Na+, 5 mM K+, 2 mM Mg2+, 1 mM Ca2+; 20 mM Tris-HCl pH 7.6, 21 °C; release from capture oligo iODN2Sp; elution not above background
[9] = system: aptamer # 3_19 (DNA, aptamer) ATACCAGCTTATTCAATTAGCCCGGTATTGAGGTCGATCTCTTATCCTATGGCTTGTCCCCCATGGCTCGGTTATATCCAGATAGTAAGTGCAATCT; experiment: fluorescence (bead or MTP assay) or SPR, capture-oligo release; conditions: 100 mM Na+, 5 mM K+, 2 mM Mg2+, 1 mM Ca2+; 20 mM Tris-HCl pH 7.6; release from capture oligo iODN2Sp; micromolar range; apparent
[10] = system: aptamer # 3_7(1-79) (DNA, aptamer) ATACCAGCTTATTCAATTGGTGGTAGGATGGGCTCGATCGAGGTCTTCAGTCGGCTCGGTTTAGTTTATGTTCTCCTGT; experiment: as above; conditions: 100 mM Na+, 5 mM K+, 2 mM Mg2+, 1 mM Ca2+; 20 mM Tris-HCl pH 7.6; release from capture oligo iODN2Sp; micromolar range; apparent
[11] = system: aptamer # 11_76 (DNA, aptamer) ATACCAGCTTATTCAATTATGCGGGGATGAGGCTTGATCTGTGGCTCTGATCCATGATCAGTCGTCTTACGTGCGGTCCAGATAGTAAGTGCAATCT; experiment: as above; conditions: 100 mM Na+, 5 mM K+, 2 mM Mg2+, 1 mM Ca2+; 20 mM Tris-HCl pH 7.6; release from capture oligo iODN2Sp; micromolar range; apparent
[12] = system: aptamer # 13_82 (DNA, aptamer) ATACCAGCTTATTCAATTCAGGGCGGTATGAGGCTCGATCAAGGTCGGAGCGAGAATTTTTTCGCGGAGTCGGCTGGATCAGATAGTAAGTGCAATCT; experiment: as above; conditions: 100 mM Na+, 5 mM K+, 2 mM Mg2+, 1 mM Ca2+; 20 mM Tris-HCl pH 7.6; release from capture oligo iODN2Sp; micromolar range; apparent
[13] = system: aptamer # 13_82(19-80) (DNA, aptamer) CAGGGCGGTATGAGGCTCGATCAAGGTCGGAGCGAGAATTTTTTCGCGGAGTCGGCTGGATC; experiment: as above; conditions: 100 mM Na+, 5 mM K+, 2 mM Mg2+, 1 mM Ca2+; 20 mM Tris-HCl pH 7.6; release from capture oligo iODN2Sp; micromolar range; apparent

| SMILES | amount of eluted aptamer DNA [1] [pmol] | amount of eluted aptamer DNA [2] [pmol] | amount of eluted aptamer DNA [3] [pmol] | amount of eluted aptamer DNA [4] [pmol] | amount of eluted aptamer DNA [5] [pmol] | binding [6] | binding [4] | amount of eluted aptamer DNA [7] [pmol] | binding [8] | dissociation constant [9] [µM] | dissociation constant [10] [µM] | dissociation constant [11] [µM] | dissociation constant [12] [µM] | dissociation constant [13] [µM] |
| --- | --- | --- | --- | --- | --- | --- | --- | --- | --- | --- | --- | --- | --- | --- |
| CCN[C@@H]1C[C@H](N)[C@@H](O[C@H]2OC(CN)=CC[C@H]2N)[C@H](O)[C@H]1O[C@H]1OC[C@](C)(O)[C@H](NC)[C@H]1O | 1.03 | 1.03 | 1.01 |  |  |  |  |  |  |  |  |  |  |  |
| CN[C@@H]1[C@@H](O[C@H]2O[C@H](CO)[C@@H](N)[C@H](O)[C@H]2O)O[C@H]2C[C@@H](N)[C@@H](O[C@H]3[C@H](O)[C@@H](O)[C@H](N)C[C@@H]3N)O[C@@H]2[C@@H]1O | 3.04 | 3.04 | 3.40 | 2.27 | 1.68 |  |  |  |  |  |  |  |  |  |
| NC[C@H]1O[C@H](O[C@H]2[C@H](O)[C@@H](O[C@H]3O[C@H](CO)[C@@H](O)[C@H](N)[C@H]3O)[C@H](N)C[C@@H]2N)[C@H](N)C[C@@H]1O |  | 4.03 | 2.78 |  | 1.91 |  | no | 1.13 |  |  |  |  |  |  |
| NC[C@H]1O[C@H](O[C@H]2[C@H](O)[C@@H](O[C@H]3O[C@H](CO)[C@@H](O)[C@H](N)[C@H]3O)[C@H](N)C[C@@H]2N)[C@H](N)[C@@H](O)[C@@H]1O | 4.42 | 5.21 | 7.22 |  | 8.04 |  | no | 3.09 |  |  |  |  |  |  |

Next, values leading:

| amount of eluted aptamer DNA [1] [pmol] | amount of eluted aptamer DNA [2] [pmol] | amount of eluted aptamer DNA [3] [pmol] | amount of eluted aptamer DNA [4] [pmol] | amount of eluted aptamer DNA [5] [pmol] | binding [6] | binding [4] | amount of eluted aptamer DNA [7] [pmol] | binding [8] | dissociation constant [9] [µM] | dissociation constant [10] [µM] | dissociation constant [11] [µM] | dissociation constant [12] [µM] | dissociation constant [13] [µM] | SMILES |
| --- | --- | --- | --- | --- | --- | --- | --- | --- | --- | --- | --- | --- | --- | --- |
|  |  |  |  |  | no |  |  |  |  |  |  |  |  | NC[C@@H]1O[C@H](O[C@H]2[C@@H](O)[C@H](O[C@@H]3[C@@H](O)[C@H](N)C[C@H](N)[C@H]3O[C@H]3O[C@H](CO)[C@@H](O)[C@H](O)[C@H]3N)O[C@@H]2CO)[C@H](N)[C@@H](O)[C@@H]1O |
| 4.62 | 5.02 | 6.85 | 3.02 | 10.44 |  |  | 6.87 | no | 3.9 | 146 | 9.6 | 5.1 | 5.4 | NC[C@H]1O[C@H](O[C@H]2[C@H](O)[C@@H](O[C@H]3O[C@H](CO)[C@@H](O)[C@H](N)[C@H]3O)[C@H](N)C[C@@H]2N)[C@H](O)[C@@H](O)[C@@H]1O |
